# Legend:
# [1] = DPPH radical scavenging by spectrophotometry; type: biochemical; details: 30 min at 22 to 24° C., 515 nm, concentrations as quercetin equivalent, read-out: SC50 (concentration required to obtain 50% of a maximum scavenging capacity)
# Method: After a 30 min incubation at 22 to 24° C., the resultant absorbance was recorded at 515 nm by a double-beam spectrophotometer model UV-2401 (Shimadzu Scientific Instruments Inc., Columbia, Md.). Ascorbate, propyl gallate, and quercetin were used as reference standard. The scavenging capacity%=[1-((Abs of cranberry crude extract/fractions-Abs of blank)/Abs control)]*100. […] Plant Sci. 2002, 163, 1161-1168). The cranberry crude extract/fractions were evaluated and compared with ascorbic acid, propyl gallate and quercetin for the free radical scavenging activity toward stable DPPH radicals. […] Specifically, in referring to FIG. 21, the final concentration of DPPH radical was […].
# [2] = system: trout hemoglobin-mediated lipid oxidation in washed cod muscle; assay: Hemoglobin-mediated lipid oxidation in washed cod muscle (TBARS); details: for Effect on lipid oxidation in washed cod muscle: hemoglobin-mediated, 2° C. storage, FIG. 22 and 23; for Inhibition in TBARS formation: washed cod muscle
# Method: Furthermore, cod muscle and trout hemoglobin were prepared according to the method described by Richards et al., Role of deoxyhemoglobin in lipid oxidation of washed cod muscle mediated by trout, poultry and beef hemoglobins. Meat Sci. 2002, 62, 157-163. The hemoglobin-mediated lipid oxidation system consisted of washed cod muscle, cranberry crude extract/fractions, streptomycin sulfate, and trout hemoglobin. The final concentration of hemoglobin and cranberry extract/fractions was 12 and 37/74 μmol per kg washed cod muscle, respectively. A control sample containing no cranberry crude extract/fractions was also prepared. The final moisture content of washed cod muscle was adjusted to 90%. pH was adjusted to between 6.10 and 6.30 by 1 M NaOH or HCl. All samples were stored at 2° C. for 7 to 9 days.
# The progress of lipid oxidation in washed cod muscle was followed by periodically removing samples and quantifying TBARS formed by a modified method of Buege and Aust Microsomal lipid peroxidation. Method. Enzymol. 1978, LII, 302-310 as described by Richards et al., Role of deoxyhemoglobin in lipid oxidation of washed cod muscle mediated by trout, poultry and beef hemoglobins. Meat Sci. 2002, 62, 157-163. Lag time (LT) is defined as extension in stability compared to control sample which was stable for around 1 day. All trials in this study were conducted in duplicate or triplicate and in each trial triplicate determinations were performed
# [3] = system: salmon oil-in water emulsion; assay: Lipid oxidation in salmon oil-in water emulsion; details: 400 ppm, 10% salmon oil, 0.5% tween 20, pH 3.0, 27° C.
# Method: Similarly, applicants have tested cranberry fractions in various emulsion systems (FIGS. 7-0). More specifically, FIG. 7, illustrates the effect of quercetin on lipid oxidation in salmon oil-in water emulsion. […] The emulsion consisted of 10% (w/w) salmon oil, 0.5% (w/w) tween 20 and 10 mM pH 3.0 acetate-imidazole buffer. Quercetin was added into the emulsion samples at the level of 400 ppm. The emulsion samples were oxidized in a shaker oven at 27° C. Likewise, FIG. 8, also illustrates the effect of cranberry fractions on lipid oxidation in salmon oil-in water emulsion. However, cranberry fractions and quercetin were added into the emulsion samples at the level of 400 ppm. Also, FIGS. 9 and 10 illustrate the effect of cranberry fractions on lipid oxidation in salmon oil-in water emulsion. However, 10% salmon oil was used in both fraction 4 and control treated samples, whereas 9.2% oil was used in the fraction 2 treated sample.
# [4] = system: mechanically separated turkey (MST); assay: Lipid oxidation (TBARS) in mechanically separated turkey during iced storage
SMILES,EC50 [1] [µM],Effect on lipid oxidation in washed cod muscle [2],Effect on lipid oxidation in emulsion systems [3],Inhibition in TBARS formation ([2]; 37 μmol quercetin per kg) [%],Inhibition in TBARS formation ([2]; 74 mmole quercetin equivalent),"Inhibition on lipid oxidation of MST ([4]; 210 umol quercetin/kg MST, 2° C. storage)","Inhibition of lipid oxidation in MST ([4]; quercetin at 50 umol/kg, precipitate added on a quercetin equivalent basis (FIG. 5))"
CCCOC(=O)c1cc(O)c(O)c(O)c1 [propyl gallate],5.07,stable throughout the entire storage period,,,,,
O=C1O[C@H]([C@@H](O)CO)C(O)=C1O [ascorbic acid],12.2,,,,,,
O=c1c(O)c(-c2ccc(O)c(O)c2)oc2cc(O)cc(O)c12 [quercetin],4.89,as effective as 37 mmole propyl gallate,"In 2 of 3 trials, quercetin was inhibitory",83,Up to 94%,Effective inhibition,highly effective
